According to US11213524B2, “Pharmaceutical compositions for subcutaneous administration of levosimendan” (Tenax Therapeutics, Inc., priority 2018, dated 2022):

What was measured:
[1] = Solubility of levosimendan at different Captisol concentrations (HPLC); type: physicochemical; settings: 10 mM phosphate buffer, pH 7, Captisol 0, 50, 100, 200, 400 mg/ml, room temperature
Experimental: A study was conducted to evaluate the impact of the concentration of the cyclodextrin or cyclodextrin derivative on the solubility of levosimendan. In particular, the study focused on the cyclodextrin derivative, Captisol® (sulfobutylether beta-cyclodextrin).
The study compared compositions comprising levosimendan, 10 mM phosphate buffer, and Captisol® at the following concentrations: 0 mg/ml (i.e., no Captisol®), 50 mg/ml, 100 mg/ml, 200 mg/ml, and 400 mg/ml. The compositions with Captisol® were prepared by mixing the levosimendan and Captisol®, and adding the 10 mM phosphate buffer until the pH of the composition was 7. The compositions were stored at room temperature.
Captisol®'s impact on the solubility of levosimendan was determined using HPLC.

[2] = Storage stability of lyophilized levosimendan/Captisol composition (HPLC % area); type: physicochemical; settings: for quantity of OR-1420: after 6 months
Experimental: A study was conducted to determine the stability of a levosimendan composition of the present invention stored under different conditions for up to six months.
The composition used for the study comprised 3 mg/ml of levosimendan and 200 mg/ml of Captisol®. To prepare the composition, the levosimendan and Captisol® were mixed together, adjusted to a pH of 7.4 using 1N NaOH, and then lyophilized.
Samples were dissolved in 50% acetonitrile and stored frozen at approximately −20° C. The compositions were analyzed at the following time points: 0, 1-month, 2-months, 4-months, and 6-months. The compositions were taken out of storage and reconstituted using distilled water. A sample from each composition was diluted at 15x-150x and analyzed using HPLC (Sciex API 3200 Linear Ion Trap, Shimadzu LC-20ADVP HPLC Pumps, Shimadzu Controller SCL-10AVP, Shimadzu Autosampler SIL-20ADVP) under the following conditions: Column, Restek Raptor Biphenyl, 2.7 μm, 100×3 mm; Mobile phase A, 5 mM Ammonium Formate/0.1% FA in H2O; Mobile phase B, 100% methanol).

[3] = Pharmacokinetic study, IV vs subcutaneous dosing, plasma levosimendan and OR-1896 by HPLC/MS/MS; settings: male, Sprague Dawley, rat, in vivo
Experimental: A pharmacokinetic study was conducted in male Sprague Dawley rats to compare subcutaneous administration of a composition of the present invention with IV administration of a formulation of levosimendan. The study evaluated levosimendan blood levels and pain at the injection site.
This study involved comparing the results of administering two subcutaneous compositions according to embodiments of the present invention to a previous pharmacokinetic study in which male rats were dosed by tail vein levosimendan as an IV bolus injection at 0.5 mg/kg using a 0.25 mg/ml solution. […]
Plasma samples were analyzed for levosimendan and OR-1896 (the primary metabolite) by HPLC/MS/MS. […]

[4] = cited from earlier work
[5] = after four months, 25° C./60% RH
[6] = after six months, 25° C./60% RH

C[C@@H]1CC(=O)NN=C1c1ccc(NN=C(C#N)C#N)cc1 [levosimendan, (−)-enantiomer of [[4-(1,4,5,6-tetrahydro-4-methyl-6-oxo-3-pyridazinyl)phenyl]hydrazono]prop anedinitrile]
solubility of levosimendan [1]: increased as the concentration of Captisol® increased | Levels of Levosimendan (% Area) ([2]; 3 mg/ml levosimendan, 200 mg/ml Captisol, lyophilized, T0): 99.98% Area | Levels of Levosimendan (% Area) ([2]; 5° C., 1-month): 99.85% Area | Levels of Levosimendan (% Area) ([2]; 5° C., 2-months): 100.00% Area | Levels of Levosimendan (% Area) ([2]; 5° C., 4-months): 99.74% Area | Levels of Levosimendan (% Area) ([2]; 5° C., 6-months): 99.73% Area | Levels of Levosimendan (% Area) ([2]; 25° C./60% RH, 1-month): 99.75% Area | Levels of Levosimendan (% Area) ([2]; 25° C./60% RH, 2-months): 99.79% Area | Levels of Levosimendan (% Area) ([2]; 25° C./60% RH, 4-months): 99.51% Area | Levels of Levosimendan (% Area) ([2]; 25° C./60% RH, 6-months): 99.49% Area | Levels of Levosimendan (% Area) ([2]; 40° C./75% RH, 1-month): 99.51% Area | Levels of Levosimendan (% Area) ([2]; 40° C./75% RH, 4-months): 98.88% Area | Levels of Levosimendan (% Area) ([2]; 40° C./75% RH, 6-months): 98.37% Area | Level of Degradants (% Area) ([2]; after four months, 5° C.): 99.91 % Area | Level of Degradants (% Area) [2, 5]: 99.64 % Area | Level of Degradants (% Area) ([2]; after four months, −20° C.): 99.93 % Area | Level of Degradants (% Area) ([2]; after six months, 5° C.): 99.90 % Area | Level of Degradants (% Area) [2, 6]: 99.57 % Area | level of levosimendan ([2]; each storage condition, after six months): over 98% | Levels of Levosimendan (% Area) ([2]; −20° C., 1-month): 99.83% Area | Levels of Levosimendan (% Area) ([2]; −20° C., 4-months): 99.79% Area | Levels of Levosimendan (% Area) ([2]; −20° C., 6-months): 99.72% Area | Levels of Levosimendan (% Area) ([2]; −80° C., 1-month): 99.82% Area | Levels of Levosimendan (% Area) ([2]; −80° C., 4-months): 99.74% Area | Levels of Levosimendan (% Area) ([2]; −80° C., 6-months): 99.74% Area | start of the β phase (loss of drug from blood mainly due to metabolism) [3]: about 2 hours | share of total levosimendan dose reduced in the intestine to OR-1855 (minor pathway) ([4]; in vivo): approximately 6% | terminal elimination half-life of levosimendan ([4]; in vivo): about 1 hour

CC(=O)Nc1ccc(C2=NNC(=O)C[C@H]2C)cc1 [OR-1896]
time at which maximum concentrations of OR-1896 are seen ([4]; after starting a 24-hour infusion): 2 to 4 days | half-life of OR-1896 ([4]; heart failure patients): 70 to 80 h

C[C@@H]1CC(=O)NN=C1c1ccc(N/N=C(\C#N)C(N)=O)cc1 [OR-1420]
Level of OR-1420 (% Area) ([2]; 5° C., 1-month): 0.055% Area | Level of OR-1420 (% Area) ([2]; 5° C., 4-months): 0.057% Area | Level of OR-1420 (% Area) ([2]; 5° C., 6-months): 0.112% Area | Level of OR-1420 (% Area) ([2]; 25° C./60% RH, 1-month): 0.155% Area | Level of OR-1420 (% Area) ([2]; 25° C./60% RH, 2-months): 0.212% Area | Level of OR-1420 (% Area) ([2]; 25° C./60% RH, 4-months): 0.285% Area | Level of OR-1420 (% Area) ([2]; 25° C./60% RH, 6-months): 0.377% Area | Level of OR-1420 (% Area) ([2]; 40° C./75% RH, 1-month): 0.436% Area | Level of OR-1420 (% Area) ([2]; 40° C./75% RH, 4-months): 0.999% Area | Level of OR-1420 (% Area) ([2]; 40° C./75% RH, 6-months): 1.420% Area | quantity of OR-1420 ([2]; 40° C./75% RH): below 1.5% | Level of OR-1420 (% Area) ([2]; T0): 0.021% Area | Level of Degradants (% Area) ([2]; after four months, 5° C.): 0.057 % Area | Level of Degradants (% Area) [2, 5]: 0.285 % Area | Level of Degradants (% Area) ([2]; after four months, 40° C./75% RH): 0.999 % Area | Level of Degradants (% Area) ([2]; after four months, −20° C.): 0.045 % Area | Level of Degradants (% Area) ([2]; after four months, −80° C.): 0.084 % Area | Level of Degradants (% Area) ([2]; after six months, 5° C.): 0.112 % Area | Level of Degradants (% Area) [2, 6]: 0.377 % Area | Level of Degradants (% Area) ([2]; after six months, 40° C./75% RH): 1.42 % Area | Level of Degradants (% Area) ([2]; after six months, −20° C.): 0.082 % Area | Level of Degradants (% Area) ([2]; after six months, −80° C.): 0.083 % Area | quantity of OR-1420 ([2]; all other storage conditions): less than 0.5% | Level of OR-1420 (% Area) ([2]; −20° C., 1-month): 0.050% Area | Level of OR-1420 (% Area) ([2]; −20° C., 4-months): 0.045% Area | Level of OR-1420 (% Area) ([2]; −20° C., 6-months): 0.082% Area | Level of OR-1420 (% Area) ([2]; −80° C., 1-month): 0.055% Area | Level of OR-1420 (% Area) ([2]; −80° C., 4-months): 0.084% Area | Level of OR-1420 (% Area) ([2]; −80° C., 6-months): 0.083% Area
